Experimental findings from patent publication US20240132498A1, “CRYSTALLINE FORMS OF 5-(3,4-DIFLUOROBENZYL)-8-((1R,4R)-4-METHYLCYCLOHEXYL)-6,9-DIOXO-2,5,8-TRIAZASPIRO[3.5]NONANE-2-CARBALDEHYDE” (Cytokinetics, Incorporated, priority 2022, published 2024) are described below.

One data set has as its target T1, CYP2C9 (Homo sapiens, UniProt P11712).
T1 construct: from tissue; host or cells: pooled human liver microsomes
Kind of data set: Time-dependent inhibition of CYP450 enzymes in human liver microsomes: CYP2C9. It is filed as in vitro ADME. As to the method:
(§1) An assessment of the time-dependent Inhibitory Potential of the test compounds against Principal Human Cytochrome P450 Isozymes using Human Liver Microsomes was also carried out using standard methods (Grimm et al, Drug Metab. Dispos., Jul; 37(7):1355-70. doi: 10.1124/dmd.109.026716, 2009). Pooled human microsomes and selective CYP probe substrates were used for in vitro assessment of test compounds at 25 and 50 μM as time-dependent inhibitors of […] human hepatic cytochrome P450 isozymes (CYP1A2, 2B6, 2C9, 2C19, 2D6, and 3A4). LC-MS/MS was used to quantify metabolite formation. The inhibition of each P450 enzyme in human liver microsomes was measured as the percentage decrease in the activity of marker metabolite formation as measured by LC-MS/MS compared to non-inhibited controls (=100% activity) at time zero and after 30 minutes incubation. The occurrence of any time dependent inhibition was then expressed as the fold change in enzyme activity at time zero relative to the activity after 30 minutes incubation. The time dependent inhibition for the compound 5-(3,4-difluorobenzyl)-8-((1 r,4r)-4-methylcyclohexyl)-6,9-dioxo-2,5, 8-triazaspiro [3.5]nonane-2-carbaldehyde (Compound 1) against CYP1A2, […], CYP2C8, CYP2C9, CYP2C19, CYP2D6, CYP3A4-M and CYP3A4-T is shown in Table B-12.
(Liver microsomes are vesicles of endoplasmic reticulum, rich in cytochrome P450 enzymes.)

In another data set the target is T2, CYP2C8 (Homo sapiens, UniProt P10632).
T2 construct: from tissue; host or cells: pooled human liver microsomes
T2 sequence (P10632 1-490): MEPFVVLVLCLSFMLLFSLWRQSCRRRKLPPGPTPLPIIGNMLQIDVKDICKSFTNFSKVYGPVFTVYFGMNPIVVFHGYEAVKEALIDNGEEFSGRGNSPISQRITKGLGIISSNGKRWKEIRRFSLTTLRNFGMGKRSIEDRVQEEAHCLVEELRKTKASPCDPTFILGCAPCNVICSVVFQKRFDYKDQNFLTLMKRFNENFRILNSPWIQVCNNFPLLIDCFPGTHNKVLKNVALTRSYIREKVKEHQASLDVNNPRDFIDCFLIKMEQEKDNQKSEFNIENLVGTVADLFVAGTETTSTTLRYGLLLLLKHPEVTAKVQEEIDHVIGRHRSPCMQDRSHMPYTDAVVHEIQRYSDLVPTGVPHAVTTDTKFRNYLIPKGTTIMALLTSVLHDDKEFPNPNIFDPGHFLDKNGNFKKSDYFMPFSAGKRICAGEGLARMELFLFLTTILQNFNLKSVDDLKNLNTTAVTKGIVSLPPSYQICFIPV
Kind of data set: Time-dependent inhibition of CYP450 enzymes in human liver microsomes: CYP2C8. Type of data set: in vitro ADME. As to the method: as §1

In a further data set the target is T3, CYP2D6 (Homo sapiens, UniProt P10635).
T3 construct: from tissue; host or cells: pooled human liver microsomes
T3 sequence (P10635 whole entry): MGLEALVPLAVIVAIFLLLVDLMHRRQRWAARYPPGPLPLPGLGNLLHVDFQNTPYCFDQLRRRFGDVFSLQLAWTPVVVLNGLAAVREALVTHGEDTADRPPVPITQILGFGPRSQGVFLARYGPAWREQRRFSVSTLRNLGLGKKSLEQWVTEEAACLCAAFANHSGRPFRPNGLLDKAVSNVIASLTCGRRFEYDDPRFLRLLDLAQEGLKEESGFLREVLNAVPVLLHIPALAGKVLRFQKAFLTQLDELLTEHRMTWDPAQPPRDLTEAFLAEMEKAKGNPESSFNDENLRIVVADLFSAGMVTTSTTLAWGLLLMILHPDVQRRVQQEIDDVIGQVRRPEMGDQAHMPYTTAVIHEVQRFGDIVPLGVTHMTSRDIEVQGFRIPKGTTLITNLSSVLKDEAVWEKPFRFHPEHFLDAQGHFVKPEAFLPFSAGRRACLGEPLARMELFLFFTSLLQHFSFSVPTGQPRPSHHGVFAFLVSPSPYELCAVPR
The experiment in a line: Time-dependent inhibition of CYP450 enzymes in human liver microsomes: CYP2D6. It is filed as in vitro ADME. The following applies: for fold change in activity (time dependent inhibition), 2D6: human liver microsomes. As to the method: as §1

Data set [1] is described as follows: Dog cassette dosing IV pharmacokinetics. It is filed as in vivo. The following applies: plasma, male beagle dogs. How it is done: Non-naïve male beagle dogs (8 months to 3 years of age, body weight 8-14 kg) sourced from Jiangsu Johnsen Bioresource CO. and/or Beijing Rixinkeji CO., LTD and/or Beijing Marshall Biotechnology CO., LTD were used in this study. All animals for IV administration had free access to food and water. The IV dose solution was prepared in 10% DMA/50% PG/40% HP0CD solution (40% w/v aqueous HP0CD) at a concentration of 0.2 mg/mL. Concentrations of IV dose was measured at the end of the study. PK parameters were calculated using the nominal dose values if the measured values were within 20% of the nominal values. Blood samples were collected by venipuncture of peripheral veins except the dosing vein at pre-dose, 5 15, 30 min, 1, 2, 4, 6, 8 and 24 h post-dose. Blood samples were centrifuged and resultant plasma was frozen for bioanalysis. Plasma samples were stored at −80° C. before analysis. Plasma samples were analyzed for compound concentrations using the LC/MS/MS method. Briefly, a 50 p L aliquot of each plasma sample was mixed with 100 μL of acetonitrile that contained an internal standard. The mixture was vortexed and centrifuged. Ten (10) μL of the resulting solution was injected onto a reverse-phase C18 column and the resultant peaks detected on a LC/MS/MS equipped with a turbo ionspray ionization source. Sample concentrations below the limit of quantification (BLQ) were treated as zero for PK calculations. […] The elimination rate constant (k) was calculated as the absolute value of the slope of the linear regression of logarithm (log) of the concentration versus time for the last three data points of the concentration-time profiles. Apparent elimination half-life (t½) values were calculated as 1n(2)/k. […] AUC values were calculated from the dosing time to the last measurable concentration. AUC∞ values were calculated as the sum of the corresponding AUC and the ratio of the last detectable concentration divided by k. Plasma clearance (CL) was calculated from Dose/AUC.. […] Vss was calculated from MRT∞×CL. Maximum concentration (Cmax) and time to reach Cmax (tmax) were recorded as observed. […]

The clearance is the volume of plasma or blood freed of the substance per unit of time. What is called half-life is the time needed for the level to fall by half in the phase considered.

T1 sequence (P11712 whole entry): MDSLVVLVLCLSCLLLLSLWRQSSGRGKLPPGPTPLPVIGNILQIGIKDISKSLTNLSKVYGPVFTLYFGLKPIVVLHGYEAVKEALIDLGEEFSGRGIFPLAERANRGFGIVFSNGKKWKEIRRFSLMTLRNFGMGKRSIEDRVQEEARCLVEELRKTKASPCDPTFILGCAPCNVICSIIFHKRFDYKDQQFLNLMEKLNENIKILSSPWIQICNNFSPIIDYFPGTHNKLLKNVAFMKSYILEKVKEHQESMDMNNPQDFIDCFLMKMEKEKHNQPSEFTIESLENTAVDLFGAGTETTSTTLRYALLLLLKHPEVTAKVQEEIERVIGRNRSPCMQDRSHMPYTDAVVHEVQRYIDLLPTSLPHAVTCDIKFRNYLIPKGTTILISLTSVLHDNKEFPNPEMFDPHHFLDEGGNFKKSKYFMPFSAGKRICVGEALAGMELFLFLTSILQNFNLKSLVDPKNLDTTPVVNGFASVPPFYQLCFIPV

Consider `C[C@H]1CC[C@H](N2CC(=O)N(Cc3ccc(F)c(F)c3)C3(CN(C=O)C3)C2=O)CC1` [Compound 1, 5-(3,4-difluorobenzyl)-8-((1r,4r)-4-methylcyclohexyl)-6,9-dioxo-2,5,8-triazaspiro[3.5]nonane-2-carbaldehyde], for which the “(% Activity NADPH T0)/(% Activity NADPH T30)” value worked out at 1.0 on CYP2C9 (CYP2C9, 25 μM); 0.9 at CYP2C9 (CYP2C9, 50 μM); 1.0 on CYP2C8 (CYP2C8, 25 μM); 1.2 at CYP2C8 (CYP2C8, 50 μM); 1.3 at CYP2D6 (CYP2D6, 25 μM); 1.1 on CYP2D6 (CYP2D6, 50 μM). For the same molecule, the activity at 30 min, 25 µM on CYP2C9 (human, pooled human liver microsomes, CYP2C9, 25 μM, 30 minutes incubation, read-out: % Activity NADPH T30) was found to be 84%; on CYP2C8 (human, pooled human liver microsomes, CYP2C8, 25 μM, 30 minutes incubation, read-out: % Activity NADPH T30), 80%; at CYP2D6 (human, pooled human liver microsomes, CYP2D6, 25 μM, 30 minutes incubation, read-out: % Activity NADPH T30), 90%. Besides, the activity at 0 min, 25 µM at CYP2C9 (human, pooled human liver microsomes, CYP2C9, 25 μM, time zero, read-out: % Activity NADPH T0) amounted to 83%; at CYP2C8 (human, pooled human liver microsomes, CYP2C8, 25 μM, time zero, read-out: % Activity NADPH T0), 79%; on CYP2D6 (human, pooled human liver microsomes, CYP2D6, 25 μM, time zero, read-out: % Activity NADPH T0) it was 118%. Also, the activity at 30 min, 50 µM came to 71% on CYP2C9 (human, pooled human liver microsomes, CYP2C9, 50 μM, 30 minutes incubation, read-out: % Activity NADPH T30); 79% on CYP2C8 (human, pooled human liver microsomes, CYP2C8, 50 μM, 30 minutes incubation, read-out: % Activity NADPH T30); 88% on CYP2D6 (human, pooled human liver microsomes, CYP2D6, 50 μM, 30 minutes incubation, read-out: % Activity NADPH T30). In addition, the activity at 0 min, 50 µM amounted to 63% on CYP2C9 (human, pooled human liver microsomes, CYP2C9, 50 μM, time zero, read-out: % Activity NADPH T0); 97% on CYP2C8 (human, pooled human liver microsomes, CYP2C8, 50 μM, time zero, read-out: % Activity NADPH T0); 93% at CYP2D6 (human, pooled human liver microsomes, CYP2D6, 50 μM, time zero, read-out: % Activity NADPH T0). The “fold change in activity (time dependent inhibition), 2D6” value on CYP2D6 (25 μM) was 1.3 fold; at CYP2D6 (50 μM), “no change in activity”. In data set [1], this molecule yielded a clearance of 5.12 mL/min/kg. In data set [1], this molecule showed a half-life of 11.8 h. Further, the Vd in data set [1] (read-out: Vss) turned out to be 4.48 L/kg.
